Source: US20190032104A1, “RAPID ANTIMICROBIAL SUSCEPTIBILITY TESTING USING HIGH-SENSITIVITY DIRECT DETECTION METHODS” (T2 Biosystems, Inc., priority 2016, published 2019)

Columns and labels:
S. aureus isolate [1] = experiment: T2MR-based AST with direct cell detection by vancomycin-conjugated magnetic nanoparticles; settings: media with pre-determined levels of agent, Example 6
Description: (§1) In one such example, a blood sample is obtained from a subject suspected to be suffering from bacteremia. A portion of the blood sample is used to inoculate a blood culture bottle (e.g., a BD BACTEC™ aerobic blood culture bottle). The blood culture bottles are incubated as recommended by the manufacturer. In parallel, an aliquot of the blood sample obtained from the patient is subjected to a T2MR-based detection method, for example, the method described in Example 22 of WO 2012/054639 in conjunction with a T2Dx® device. In this example, the T2MR-based method identifies S. aureus as being present in the blood sample within 3 hours from the start of the assay.
Based on the T2MR-based detection and identification of S. aureus in the subject's blood, a subsequent blood draw is taken directly to media that contain either no antimicrobial agents or pre-determined levels of oxacillin, vancomycin, trimethoprim-sulfamethoxazole (BACTRIM™), doxycycline, daptomycin, or linezolid. Aliquots are taken from these media at time intervals, and the aliquots are subjected to T2MR-based direct detection of S. aureus cells, as described, for example, in Example 4 of International Patent Publication No. WO 2012/129281. S. aureus cells are detected by labeling with magnetic nanoparticles. […]

S. aureus = experiment: administration to the subject with bacteremia (S. aureus); type: in vivo, human
Candida albicans = experiment: administration to the subject with Candidemia (Candida albicans); type: in vivo, human
S. aureus isolate [2] = experiment: agar-based antimicrobial gradient test (e.g., ETEST); type: cell-based; settings: S. aureus isolate from subject's blood, Example 3
Description: as §1, with “A” for “In one such example, a”
(§2) Next, based on the identification of S. aureus in the blood sample, the blood culture bottle is sampled by lysis filtration or lysis centrifugation followed by plating of the cell pellet on to chromogenic media (e.g., CHROMAGAR™ MRSA (Chromagar)) or directly on to an agar-based antimicrobial gradient test (e.g., an ETEST®) in order to test whether the S. aureus isolate from the subject's blood is sensitive to oxacillin, vancomycin, trimethoprim-sulfamethoxazole (BACTRIM™), doxycycline, daptomycin, and linezolid. Additionally, T2MR-based real-time PCR is performed as described, for example, in Example 19 of WO 2012/054639, is used to determine the expression level of antibiotic resistance markers such as mecA. […]

Candida glabrata = experiment: administration to the subject with Candidemia (Candida glabrata); type: in vivo, human; settings: appropriate dose, subject with Candidemia (C. glabrata), Example 4
Candida albicans isolate = experiment: AST testing of isolated colonies, agar-based AST method (e.g., ETEST) or full panel AST device (e.g., VITEK 2); type: cell-based; settings: Candida albicans isolate from subject's blood, Example 2
Description: A blood sample is obtained from a subject suspected to be suffering from Candidemia. A portion of the blood sample is used to inoculate a blood culture bottle (e.g., a BD BACTEC™ aerobic blood culture bottle). The blood culture bottles are incubated as recommended by the manufacturer. In parallel, an aliquot of the blood sample obtained from the patient is subjected to a T2MR-based detection method, for example, as described in Example 1 above. In this example, the T2MR-based method identifies Candida albicans as being present in the blood sample.
Next, based on the identification of Candida albicans in the blood sample, the blood culture bottle is sampled by lysis filtration or lysis centrifugation followed by plating of the cell pellet on to Samouraud Glucose media, thereby encouraging growth of Candida albicans and early growth of the isolated colonies. These colonies are subjected to AST testing, either using an agar-based AST method (e.g., ETEST®) or a full panel AST device (e.g., VITEK® 2). Several appropriate anti-fungal drugs are tested, e.g., fluconazole, itraconazole, amphotericin B, micafungin, voriconazole, and caspofungin.

C. albicans isolate = experiment: T2MR-based AST, real-time PCR of housekeeping gene as proxy for growth; type: cell-based, Candida albicans; settings: media with pre-determined levels of agent, Example 5
Description: A blood sample is obtained from a subject suspected to be suffering from Candidemia. The blood sample obtained from the patient is subjected to a T2MR-based detection method, for example, as described above in Example 4. In this example, Candida albicans is identified as being present in the subject's blood sample within 3 h from the start of the assay.
Based on the T2MR-based detection and identification of Candida albicans in the subject's blood, a subsequent blood draw is taken directly to media that contain either no antimicrobial agents or pre-determined levels of antimicrobial agents such as fluconazole, itraconazole, amphotericin B, and caspofungin. Aliquots are taken from these media at time intervals, and the aliquots are subjected to T2MR-based real-time PCR is performed as described, for example, in Example 19 of WO 2012/054639, to detect the expression level of the multiple drug resistance gene MDR1 as well as a housekeeping gene such as beta-actin (ACT1) as a proxy for growth of the C. albicans isolate in the media. […] A growth curve is made by plotting the T2 signal over time.

C. glabrata isolate = experiment: as above; type: cell-based, Candida glabrata; settings: media with pre-determined levels of agent, Example 4
Description: A blood sample is obtained from a subject suspected to be suffering from Candidemia. The blood sample obtained from the patient is subjected to a T2MR-based detection method, for example, the method described in Example 22 of WO 2012/054639 in conjunction with a T2Dx® device. Briefly, PCR is performed using a forward primer that includes the oligonucleotide sequence 5′-GGCATGCCTGTTTGAGCGTC-3′ (SEQ ID NO: 13) and a reverse primer that includes the oligonucleotide sequence 5′-GCTTATTGATATGCTTAAGTTCAGCGGGT-3′ (SEQ ID NO: 14). Magnetic particles conjugated individually to the capture probes described in Table 1 are used to test for the presence of Candida albicans, Candida glabrata, Candida krusei, Candida parapsilosis, and Candida tropicalis. In this example, Candida glabrata is identified as being present in the subject's blood sample within 3 h from the start of the assay.
Based on the T2MR-based detection and identification of Candida glabrata in the subject's blood, a subsequent blood draw is taken directly to media that contain either no antimicrobial agents or pre-determined levels of fluconazole, itraconazole, amphotericin B, or caspofungin. […]

S. aureus isolate [3] = experiment: growth on chromogenic media (e.g., CHROMAGAR MRSA); type: cell-based; settings: Example 3
Description: as §1, with “A” for “In one such example, a”
as §2

## CN[C@H](CC(C)C)C(=O)N[C@H]1C(=O)N[C@@H](CC(N)=O)C(=O)N[C@H]2C(=O)N[C@H]3C(=O)N[C@H](C(=O)N[C@H](C(=O)O)c4cc(O)cc(O)c4-c4cc3ccc4O)[C@H](O)c3ccc(c(Cl)c3)Oc3cc2cc(c3O[C@@H]2O[C@H](CO)[C@@H](O)[C@H](O)[C@H]2O[C@H]2C[C@](C)(N)[C@H](O)[C@H](C)O2)Oc2ccc(cc2Cl)[C@H]1O [vancomycin]
S. aureus isolate [1]
  antimicrobial susceptibility of the isolate, growth curve of T2 signal over time: particularly sensitive
S. aureus
  treatment outcome in the subject: treating the subject's bacteremia

## C[C@@H]1[C@H](O)[C@@H](C)/C=C/C=C/C=C/C=C/C=C/C=C/C=C/[C@H](O[C@@H]2O[C@H](C)[C@@H](O)[C@H](N)[C@@H]2O)C[C@@H]2O[C@](O)(C[C@@H](O)C[C@@H](O)[C@H](O)CC[C@@H](O)C[C@@H](O)CC(=O)O[C@H]1C)C[C@H](O)[C@H]2C(=O)O [amphotericin B]
Candida albicans; MDR1 expression elevated after fluconazole, therapy switched, Example 5
  treatment outcome in the subject after switch from fluconazole: successful in treating the subject

## trimethoprim-sulfamethoxazole
S. aureus isolate [2]
  antimicrobial susceptibility of the isolate: sensitive
S. aureus
  treatment outcome in the subject: treating the bacteremia

## OC(Cn1cncn1)(Cn1cncn1)c1ccc(F)cc1F [fluconazole]
Candida albicans; appropriate dose, subject with Candidemia (C. albicans)
  treatment outcome in the subject: treating the subject's Candidemia
Candida glabrata
  treatment outcome in the subject: treating the subject's Candidemia
Candida albicans isolate
  antimicrobial susceptibility of the isolate: particularly sensitive
C. albicans isolate
  antimicrobial susceptibility of the isolate, growth curve of T2 signal over time: particularly sensitive
C. glabrata isolate
  antimicrobial susceptibility of the isolate, growth curve of T2 signal over time: particularly sensitive

## COc1cccc(OC)c1C(=O)N[C@@H]1C(=O)N2[C@@H]1SC(C)(C)[C@@H]2C(=O)O [methicillin]
S. aureus isolate [3]
  antimicrobial resistance of the isolate, based on the color of the colonies: resistant
